Measurements as given in patent publication US20030064954A1, “Cationic amphiphilic 1,4-dihydropyridine derivatives useful for delivery of nucleotide containing compounds” (priority 2000, published 2003).
Several values for one entry are separate records, joined by “and”; a condition that tells them apart may be missing. Identical values can stand only once. Blank lines part the entries; values can stand above or below the compound they belong to.

Columns and labels:
[1] = tested on: CV-1P (African monkey green kidney fibroblasts cells); test: In vitro transfection of plasmid DNA, β-galactosidase activity per well; format: cell-based; conditions: CVI-P; for transfection, result in words: entry spans the charge ratios 8-0.5
Procedure: Transfer of plasmid DNA by various compounds was investigated by using CV-1P (African monkey green kidney fibroblasts cells) and D407 (human retinal pigment epithelial) cells.
The cells were cultured in Dulbecco's modified Eagle's medium (DMEM, Gibco), supplemented with 10% fetal bovine serum (FBS), penicillin/streptomycin (100 units/ml and 100 μg/ml respectively) and 2 mM L-glutamine for D 407 cell line. Cell cultures were maintained at 37° C. in a 7% CO2/air incubator. The cells were collected, counted and seeded in growth medium (100 μl) into 96-well culture plate, 20 000 cells per well. One day later the medium was replaced with fresh medium without serum (150 μl)
In the case of confluent CV1-P cells the medium (with of without serum) was changed on fourth day of cell growth before the transfection.
The complexes at different derivative/DNA charge ratios for transfection procedure were prepared just before use in 50 mM MES—50 mM HEPES—75 mM NaCl buffer, pH 7.2 in separate 96 well plates. One hour after changing the serum-free medium with 10% serum the complexes were added to the cells at […]. Dose of DNA per well was 0.6 μg. After 5 h the complexes were removed, the cells were washed with PBS, and the normal growth medium was added. After 45 h of incubation at 37° C. the cells were lysed with 2% Triton X 100, twice deep frozen and the β-galactosidase activity in each well was determined spectrofotometrically with ELx800 automated microplate reader (Bio-Tex Instruments Inc., Winooski, Vt. USA) by monitoring the hydrolysis of o-nitrophenylgalactopyranoside (oNPG) at 405 nm. Purified β-galactosidase from E.coli was used to construct a standard curve and to calculate […] activity in the transfected cells. […] Transfection efficiencies are given as percentage in comparison to transfection efficiency of Lipofectin^R.

plasmid DNA = test: DNA condensation/complexation, EtBr displacement assay; format: binding
Procedure: The ability of the cationic amphiphiles to condense DNA was assessed with an EtBr displacement assay. Briefly, in 96 well plates plasmid DNA (0.6 μg per well) was reacted with 0.002% EtBr in 20 mM HEPES—150 mM NaCl buffer, pH 7.4 and fluorescence intensity was measured at 530 nm (excitation) and 590 nm (emission). Intercalation of EtBr molecules between the base pairs of the DNA double helix results in increased fluorescence signal. Immediately thereafter, the cationic liposomes were added to form complexes at different +/−charge ratios and the quenching of fluorescence intensity of EtBr was monitored. Condensation of DNA upon complexation with liposomes results in the displacement of EtBr from DNA and in decreased fluorescence signal. Fluorescence was measured using FL 500 microplate fluorescence reader (Bio-Tek Instruments Inc., Winooski, Vt., USA).
The values are expressed as percentage of the maximum fluorescence signal when EtBr bound to DNA in the absence of an amphiphile. Each data point is from at least triplicate experiment ±S.D.

CVI-P cells = test: Cytotoxicity of amphiphile/DNA complexes, percentage of survived cells
[2] = tested on: D407 (human retinal pigment epithelial) cells; test: In vitro transfection of plasmid DNA, β-galactosidase activity per well; format: cell-based; conditions: D 407
D 407 cells = test: Cytotoxicity of amphiphile/DNA complexes, percentage of survived cells; format: cell-based, human; design: concentration or dose not given beside the values
[3] = amphiphile/DNA +/− charge ratio 0.5
[4] = amphiphile/DNA +/− charge ratio 1
[5] = amphiphile/DNA +/− charge ratio 2
[6] = amphiphile/DNA +/− charge ratio 4
[7] = amphiphile/DNA +/− charge ratio 8

SMILES: CCCCCCCCCCCCCCCCOCCCOC(=O)C1=C(C)NC(C)=C(C(=O)OCCCOCCCCCCCCCCCCCCCC)C1c1ccc[n+](C)c1.[I-] [II]
transfection, result in words [1]: No signal | complexation, percentage of the maximum fluorescence signal when EtBr bound to DNA in the absence of an amphiphile (plasmid DNA; [3]): 92,2% | complexation, percentage of the maximum fluorescence signal when EtBr bound to DNA in the absence of an amphiphile (plasmid DNA; [4]): 85,6% | complexation, percentage of the maximum fluorescence signal when EtBr bound to DNA in the absence of an amphiphile (plasmid DNA; [5]): 77,2% | complexation, percentage of the maximum fluorescence signal when EtBr bound to DNA in the absence of an amphiphile (plasmid DNA; [6]): 74,8% | complexation, percentage of the maximum fluorescence signal when EtBr bound to DNA in the absence of an amphiphile (plasmid DNA; [7]): 72,4% | cytotoxicity as a percentage of survived cells (CVI-P cells; [3]): 111,42% | cytotoxicity as a percentage of survived cells (CVI-P cells; [4]): 101,24% | cytotoxicity as a percentage of survived cells (CVI-P cells; [5]): 102,9% | cytotoxicity as a percentage of survived cells (CVI-P cells; [6]): 79,08% | cytotoxicity as a percentage of survived cells (CVI-P cells; [7]): 99,23%

SMILES: CCCCCCCC/C=C\CCCCCCCC(=O)OCC(C[N+](C)(C)C)OC(=O)CCCCCCC/C=C\CCCCCCCC.[Cl-] (centres unmarked) [DOTAP, N-(1-(2,3-dioleoyloxy)propyl)-N,N,N-trimethylammoniummethyl-sulfate, reference compound]
transfection efficiency [1, 3]: 0,61 β-galactosidase units per well | transfection efficiency [1, 4]: 0,9 β-galactosidase units per well | transfection efficiency [1, 5]: 15,58 β-galactosidase units per well | transfection efficiency [1, 6]: 10,5 β-galactosidase units per well | transfection efficiency [1, 7]: 3,19 β-galactosidase units per well | transfection efficiency [2, 3]: 0,7 β-galactosidase units per well | transfection efficiency [2, 4]: 4,8 β-galactosidase units per well | transfection efficiency [2, 5]: 25,05 β-galactosidase units per well | transfection efficiency [2, 6]: 19,6 β-galactosidase units per well | transfection efficiency [2, 7]: 4,92 β-galactosidase units per well | cytotoxicity as a percentage of survived cells (D 407 cells; [3]): 85,08% | cytotoxicity as a percentage of survived cells (D 407 cells; [4]): 87,48% | cytotoxicity as a percentage of survived cells (D 407 cells; [5]): 80,32% | cytotoxicity as a percentage of survived cells (D 407 cells; [6]): 81,34% | cytotoxicity as a percentage of survived cells (D 407 cells; [7]): 76,11% | complexation, percentage of the maximum fluorescence signal when EtBr bound to DNA in the absence of an amphiphile (plasmid DNA; [3]): 86,72% | complexation, percentage of the maximum fluorescence signal when EtBr bound to DNA in the absence of an amphiphile (plasmid DNA; [4]): 76,11% | complexation, percentage of the maximum fluorescence signal when EtBr bound to DNA in the absence of an amphiphile (plasmid DNA; [5]): 69,15% | complexation, percentage of the maximum fluorescence signal when EtBr bound to DNA in the absence of an amphiphile (plasmid DNA; [7]): 65,47% | cytotoxicity as a percentage of survived cells (CVI-P cells; [3]): 92,45% | cytotoxicity as a percentage of survived cells (CVI-P cells; [4]): 92,09% | cytotoxicity as a percentage of survived cells (CVI-P cells; [5]): 91,87% | cytotoxicity as a percentage of survived cells (CVI-P cells; [6]): 97,89% | cytotoxicity as a percentage of survived cells (CVI-P cells; [7]): 102,3%

SMILES: CCCCCCCCCOC(=O)C1=C(C)NC(C)=C(C(=O)OCCCCCCCCC)C1c1ccc[n+](C)c1.I.[I-] [IV, 1′,4′-Dihydro-1,2′,6′-trimethyl-3′,5′-bis(nonyloxycarbonyl)-3,4′-bipyridinium iodide]
transfection, result in words [1]: No signal

complexation, percentage of the maximum fluorescence signal when EtBr bound to DNA in the absence of an amphiphile (plasmid DNA; [3]): 77,8% | complexation, percentage of the maximum fluorescence signal when EtBr bound to DNA in the absence of an amphiphile (plasmid DNA; [4]): 58,8% | complexation, percentage of the maximum fluorescence signal when EtBr bound to DNA in the absence of an amphiphile (plasmid DNA; [5]): 48,1% | complexation, percentage of the maximum fluorescence signal when EtBr bound to DNA in the absence of an amphiphile (plasmid DNA; [6]): 45,1% | complexation, percentage of the maximum fluorescence signal when EtBr bound to DNA in the absence of an amphiphile (plasmid DNA; [7]): 43,5%
SMILES: CCCCCCCCCCOC(=O)C1=C(C[n+]2ccccc2)NC(C[n+]2ccccc2)=C(C(=O)OCCCCCCCCCC)C1c1ccccc1.[Br-].[Br-] [XXII, 1,1′-{[3,5-Bis(decyloxycarbonyl)-1,4-dihydro-4-phenylpyridine-2,6-diyl]dimethylene}bispyridinium dibromide]
transfection, result in words [1]: No signal | cytotoxicity as a percentage of survived cells (CVI-P cells; [3]): 95,71% | cytotoxicity as a percentage of survived cells (CVI-P cells; [4]): 87,2% | cytotoxicity as a percentage of survived cells (CVI-P cells; [5]): 84,01% | cytotoxicity as a percentage of survived cells (CVI-P cells; [6]): 78,2% | cytotoxicity as a percentage of survived cells (CVI-P cells; [7]): 46,74%

SMILES: CCCCCCCCC=CCCCCCCCCOC(=O)C1=C(C[n+]2ccccc2)NC(C[n+]2ccccc2)=C(C(=O)OCCCCCCCCC=CCCCCCCCC)C1c1ccccc1.[Br-].[Br-] (centres unmarked) [XXVI, 1,1′-[(3,5-Dioctadec-9′-enyloxycarbonyl-4-phenyl-1,4-dihydropyridine-2,6-diyl)dimethylene]bispyridinium dibromide]
transfection, result in words [1]: No signal

SMILES: CCCCCCCCCCOC(=O)C1=C(C[N+](C)(C)CCCCCCCC)NC(C[N+](C)(C)CCCCCCCC)=C(C(=O)OCCCCCCCCCC)C1c1ccccc1.[Br-].[Br-] [XXVII, N,N′-{[3,5-Bis(decyloxycarbonyl)-1,4-dihydro-4-phenyl-pyridine-2,6-diyl]dimethylene}-N,N,N′,N′-tetramethyl-N,N′-dioctyldiammonium dibromide]
transfection efficiency [1, 3]: 0,24 β-galactosidase units per well | transfection efficiency [1, 4]: 1,63 β-galactosidase units per well | transfection efficiency [1, 5]: 36,55 β-galactosidase units per well | transfection efficiency [1, 6]: 21,46 β-galactosidase units per well | transfection efficiency [1, 7]: 3,14 β-galactosidase units per well | DNA condensing capacity (mark in Table 2) (plasmid DNA): 23a/XXVII* | cytotoxicity as a percentage of survived cells (CVI-P cells; [3]): 105,03% | cytotoxicity as a percentage of survived cells (CVI-P cells; [4]): 98,37% | cytotoxicity as a percentage of survived cells (CVI-P cells; [5]): 88,41% | cytotoxicity as a percentage of survived cells (CVI-P cells; [6]): 24,62% | cytotoxicity as a percentage of survived cells (CVI-P cells; [7]): 13,46%

SMILES: Br.CCCCCCCCCCCCCCOC(=O)C1=C(C)NC(C)=C(C(=O)OCCCCCCCCCCCCCC)C1c1ccc[n+](CCCC)c1.[Br-] [XXI, 1-Butyl-1′,4′-dihydro-2′,6′-dimethyl-3′,5′-bis(tetradecyloxycarbonyl)-3,4′-bipyridinium bromide]
transfection, result in words [1]: No signal

complexation, percentage of the maximum fluorescence signal when EtBr bound to DNA in the absence of an amphiphile (plasmid DNA; [3]): 101,6% and 97,8% | complexation, percentage of the maximum fluorescence signal when EtBr bound to DNA in the absence of an amphiphile (plasmid DNA; [4]): 101,6% and 97,5% | complexation, percentage of the maximum fluorescence signal when EtBr bound to DNA in the absence of an amphiphile (plasmid DNA; [5]): 103,3% and 97,5% | complexation, percentage of the maximum fluorescence signal when EtBr bound to DNA in the absence of an amphiphile (plasmid DNA; [6]): 97,8% and 98,4% | complexation, percentage of the maximum fluorescence signal when EtBr bound to DNA in the absence of an amphiphile (plasmid DNA; [7]): 98,5% and 106,1%
SMILES: CCCCCCCCCCCCCCCC(=O)OCC(COC(=O)C1=C(C)NC(C)=C(C(=O)OCC(COC(=O)CCCCCCCCCCCCCCC)OC(=O)CCCCCCCCCCCCCCC)C1c1ccc[n+](C)c1)OC(=O)CCCCCCCCCCCCCCC.I.[I-] (centres unmarked) [IX, 3′,5′-Bis [(2,3-dipalmitoyloxypropoxy)carbonyl]-1′,4′-dihydro-1,2′,6′-trimethyl-3,4′-bipyridinium iodide]
transfection, result in words [1]: No signal | cytotoxicity as a percentage of survived cells (CVI-P cells; [3]): 83,11% and 90,48% | cytotoxicity as a percentage of survived cells (CVI-P cells; [4]): 84,63% and 107,13% | cytotoxicity as a percentage of survived cells (CVI-P cells; [5]): 97,34% and 120,34% | cytotoxicity as a percentage of survived cells (CVI-P cells; [6]): 106,62% and 117,42% | cytotoxicity as a percentage of survived cells (CVI-P cells; [7]): 100,65% and 124,54%
